{"source": "paper PMC8934836", "about": "(EJNMMI Radiopharmacy and Chemistry, 2022)", "key": {"[1]": {"test": "Preliminary studies on storage stability of the precursor", "format": "physicochemical", "conditions": "room temperature"}, "α2β3γ2 human GABAARs": {"biological_target": "T1, α2β3γ2 human GABAARs (Homo sapiens, UniProt P18507+P47869)", "T1 construct": "expressed in transfected cells; host or cells: mouse fibroblasts, stably expressing; membranes prepared", "T1 sequence (P47869 29-451)": "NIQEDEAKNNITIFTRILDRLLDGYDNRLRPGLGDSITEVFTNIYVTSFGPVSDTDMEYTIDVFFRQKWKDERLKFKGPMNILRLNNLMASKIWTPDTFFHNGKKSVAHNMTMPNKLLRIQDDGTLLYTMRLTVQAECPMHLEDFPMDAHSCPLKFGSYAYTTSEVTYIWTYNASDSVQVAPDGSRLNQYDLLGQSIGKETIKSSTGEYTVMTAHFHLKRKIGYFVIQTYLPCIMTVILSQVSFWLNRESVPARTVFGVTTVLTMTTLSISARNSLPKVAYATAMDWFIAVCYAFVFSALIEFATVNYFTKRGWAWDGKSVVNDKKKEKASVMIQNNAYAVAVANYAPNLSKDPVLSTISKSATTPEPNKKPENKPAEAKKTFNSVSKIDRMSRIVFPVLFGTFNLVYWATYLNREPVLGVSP", "T1 sequence (P28472 26-473 partner)": "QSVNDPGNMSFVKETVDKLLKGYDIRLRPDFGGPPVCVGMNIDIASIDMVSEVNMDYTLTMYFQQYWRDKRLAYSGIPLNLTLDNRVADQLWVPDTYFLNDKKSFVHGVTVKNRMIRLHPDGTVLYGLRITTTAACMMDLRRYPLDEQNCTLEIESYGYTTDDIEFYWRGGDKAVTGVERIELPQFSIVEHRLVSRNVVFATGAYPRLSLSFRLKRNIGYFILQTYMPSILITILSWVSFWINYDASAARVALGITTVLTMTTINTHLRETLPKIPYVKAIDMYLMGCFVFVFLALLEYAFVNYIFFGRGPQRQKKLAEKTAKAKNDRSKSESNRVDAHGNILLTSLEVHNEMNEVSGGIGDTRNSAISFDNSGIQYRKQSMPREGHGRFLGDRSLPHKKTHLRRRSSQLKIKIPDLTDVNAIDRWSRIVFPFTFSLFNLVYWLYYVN", "T1 sequence (P18507 40-475)": "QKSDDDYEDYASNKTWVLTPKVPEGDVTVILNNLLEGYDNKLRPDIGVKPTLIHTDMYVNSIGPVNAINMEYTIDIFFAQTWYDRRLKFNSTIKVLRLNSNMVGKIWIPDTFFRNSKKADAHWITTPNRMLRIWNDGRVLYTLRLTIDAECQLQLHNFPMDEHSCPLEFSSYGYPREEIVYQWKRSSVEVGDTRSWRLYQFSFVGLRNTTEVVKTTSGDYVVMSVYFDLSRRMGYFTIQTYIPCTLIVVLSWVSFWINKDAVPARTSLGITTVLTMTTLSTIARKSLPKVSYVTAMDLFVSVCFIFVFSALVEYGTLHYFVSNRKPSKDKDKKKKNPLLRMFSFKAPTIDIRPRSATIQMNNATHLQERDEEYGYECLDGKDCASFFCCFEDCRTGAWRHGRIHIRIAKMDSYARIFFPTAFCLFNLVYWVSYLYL", "test": "[^3H]flumazenil in vitro binding assay, α2β3γ2", "conditions": "read-out: Affinity at human GABAAR subtypes, α2β3γ2 (mean Ki)", "experimental": "(§1) These samples were serially diluted in 100% DMSO in half-log units such that when 5 µl were added into a total assay volume of 500 µl, the final DMSO concentration in the assay was 1%.\n(§2) In brief, mouse fibroblasts stably expressing the four subtypes of human GABAARs that contain a benzodiazepine binding site (i.e., α1-, α2-, α3- and α5β3γ2) were grown, harvested, and membranes were prepared and frozen at -80 °C until required. On the day of the assay, membranes were thawed and reconstituted in assay buffer (75 mM Tris.Cl, pH 7.4, 1 mM EDTA, 12.5 mM MgCl2) at a concentration of 101 µg/ml for α1β3γ2 and 51 µg/ml for α2-, α3- and α5β3γ2 membrane. […] Incubations were performed for 1 h at room temperature before being terminated by filtration and rapid washing (2 × 10 ml of ice-cold 50 mM Tris.Cl, pH 7.4 buffer) over Whatman GF/B filters using a Brandel cell harvester. Filters were then placed in scintillation vials, 4 ml of scintillation fluid added, and radioactivity was counted on a Tricarb 2900 scintillation counter."}, "α1β3γ2 human GABAARs": {"biological_target": "T2, α1β3γ2 human GABAARs (Homo sapiens, UniProt P14867+P18507)", "T2 construct": "expressed in transfected cells; host or cells: mouse fibroblasts, stably expressing; membranes prepared", "T2 sequence (P14867 28-456)": "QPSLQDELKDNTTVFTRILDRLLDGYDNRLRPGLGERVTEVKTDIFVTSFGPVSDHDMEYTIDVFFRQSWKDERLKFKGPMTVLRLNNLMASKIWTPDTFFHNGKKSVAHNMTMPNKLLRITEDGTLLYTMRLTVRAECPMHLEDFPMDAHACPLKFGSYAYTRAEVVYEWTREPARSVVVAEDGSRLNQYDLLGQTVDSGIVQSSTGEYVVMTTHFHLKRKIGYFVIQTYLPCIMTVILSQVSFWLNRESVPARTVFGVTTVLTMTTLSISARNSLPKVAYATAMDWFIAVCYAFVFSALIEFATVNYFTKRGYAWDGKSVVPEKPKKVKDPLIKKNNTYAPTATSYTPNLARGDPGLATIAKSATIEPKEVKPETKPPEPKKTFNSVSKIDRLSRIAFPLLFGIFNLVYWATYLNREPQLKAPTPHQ", "T2 sequence (P28472 26-473 partner)": "as the sequence (P28472 26-473 partner) above", "T2 sequence (P18507 40-475)": "as the sequence (P18507 40-475) above", "test": "[^3H]flumazenil in vitro binding assay, α1β3γ2", "experimental": "as §1, §2"}, "α3β3γ2 human GABAARs": {"biological_target": "T3, α3β3γ2 human GABAARs (Homo sapiens, UniProt P18507+P34903)", "T3 construct": "expressed in transfected cells; host or cells: mouse fibroblasts, stably expressing; membranes prepared", "T3 sequence (P34903 29-492)": "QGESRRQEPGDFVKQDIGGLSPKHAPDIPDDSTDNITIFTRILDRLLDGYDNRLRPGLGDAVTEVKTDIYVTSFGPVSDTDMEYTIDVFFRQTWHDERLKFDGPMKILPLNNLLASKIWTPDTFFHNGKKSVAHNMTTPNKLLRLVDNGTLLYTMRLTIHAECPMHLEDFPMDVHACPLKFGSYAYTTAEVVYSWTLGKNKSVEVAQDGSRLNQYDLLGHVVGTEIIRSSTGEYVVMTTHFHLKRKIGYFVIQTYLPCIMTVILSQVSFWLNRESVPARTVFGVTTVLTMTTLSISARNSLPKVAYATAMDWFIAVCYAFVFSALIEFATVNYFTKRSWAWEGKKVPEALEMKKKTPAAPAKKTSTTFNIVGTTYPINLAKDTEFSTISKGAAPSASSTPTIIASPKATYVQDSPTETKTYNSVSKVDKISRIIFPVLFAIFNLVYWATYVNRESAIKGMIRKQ", "T3 sequence (P28472 26-473 partner)": "as the sequence (P28472 26-473 partner) above", "T3 sequence (P18507 40-475)": "as the sequence (P18507 40-475) above", "test": "[^3H]flumazenil in vitro binding assay, α3β3γ2", "conditions": "read-out: Affinity at human GABAAR subtypes, α3β3γ2 (mean Ki)", "experimental": "as §1, §2"}, "α5β3γ2 human GABAARs": {"biological_target": "T4, α5β3γ2 human GABAARs (Homo sapiens, UniProt P18507+P31644)", "T4 construct": "expressed in transfected cells; host or cells: mouse fibroblasts, stably expressing; membranes prepared", "T4 sequence (P31644 32-462)": "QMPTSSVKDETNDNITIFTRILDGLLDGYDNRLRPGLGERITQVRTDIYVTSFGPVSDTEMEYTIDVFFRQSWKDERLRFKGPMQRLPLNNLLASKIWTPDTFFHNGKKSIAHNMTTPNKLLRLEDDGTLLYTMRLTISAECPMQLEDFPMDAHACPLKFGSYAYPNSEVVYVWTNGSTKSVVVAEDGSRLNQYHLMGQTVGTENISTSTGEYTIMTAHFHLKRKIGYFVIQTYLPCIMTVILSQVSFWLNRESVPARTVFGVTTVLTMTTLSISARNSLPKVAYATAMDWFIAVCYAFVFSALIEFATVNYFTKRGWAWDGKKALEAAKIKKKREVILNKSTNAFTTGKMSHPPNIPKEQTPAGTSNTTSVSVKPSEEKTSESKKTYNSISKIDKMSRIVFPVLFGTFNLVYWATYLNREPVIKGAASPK", "T4 sequence (P28472 26-473 partner)": "as the sequence (P28472 26-473 partner) above", "T4 sequence (P18507 40-475)": "as the sequence (P18507 40-475) above", "test": "[^3H]flumazenil in vitro binding assay, α5β3γ2", "experimental": "as §1, §2"}, "[2]": {"conditions": "mouse fibroblast membranes, 4 nM [^3H]flumazenil, Cheng-Prusoff, mean ± SEM of n = 4 separate assays"}}, "note": "Where two headings read alike, the source gives them in different places."}
{"smiles": "CCOC(=O)c1ncn2c1CN(C)C(=O)c1cc(B3OC(C)(C)C(C)(C)O3)ccc1-2", "note": "[FMZ-BPin, Ethyl 5-methyl-6-oxo-8(4,4,5,5-tetramethyl-1,3,2-dioxaborolan-2-yl)-5,6-dihydro-4H-benzo[f]imidazo[1,5-a][1,4]diazepine-3-carboxylate]", "values": [{"measurement": "Stable for prolonged storage", "setting": "[1]", "value": "> 9", "unit": "months"}]}
{"smiles": "CCOC(=O)c1ncn2c1CN(C)C(=O)c1cc(O)ccc1-2", "note": "[OHMZ, Flumazenil impurity B]", "values": [{"measurement": "Ki", "setting": "α2β3γ2 human GABAARs; [2]", "value": "7.3 ± 1.5", "unit": "nM"}, {"measurement": "Ki", "setting": "α1β3γ2 human GABAARs; mouse fibroblast membranes, 4 nM [^3H]flumazenil, Cheng-Prusoff, mean ± SEM of n = 4 separate assays, read-out: Affinity at human GABAAR subtypes, α1β3γ2 (mean Ki)", "value": "5.4 ± 0.6", "unit": "nM"}, {"measurement": "Ki", "setting": "α3β3γ2 human GABAARs; [2]", "value": "2.7 ± 0.9", "unit": "nM"}, {"measurement": "Ki", "setting": "α5β3γ2 human GABAARs; mouse fibroblast membranes, 4 nM [^3H]flumazenil, Cheng-Prusoff, mean ± SEM of n = 4 separate assays, read-out: Affinity at human GABAAR subtypes, α5β3γ2 (mean Ki)", "value": "0.5 ± 0.1", "unit": "nM"}]}
{"smiles": "CCOC(=O)c1ncn2c1CN(C)C(=O)c1ccccc1-2", "note": "[HMZ, ethyl 5-methyl-6-oxo-5,6-dihydro-4H-benzo[f]imidazo[1,5-a][1,4]diazepine-3-carboxylate]", "values": [{"measurement": "Ki", "setting": "α2β3γ2 human GABAARs", "value": "15 ± 2", "unit": "nM"}, {"measurement": "Ki", "setting": "α1β3γ2 human GABAARs", "value": "24 ± 3", "unit": "nM"}, {"measurement": "Ki", "setting": "α3β3γ2 human GABAARs", "value": "11 ± 4", "unit": "nM"}, {"measurement": "Ki", "setting": "α5β3γ2 human GABAARs", "value": "1.7 ± 0.2", "unit": "nM"}]}
